Assay results as given in the METLIN SMRT retention time set (Domingo-Almenara et al. 2019).

Experiment: gradient 5% acetonitrile 3 min, to 50% in 2 min, to 85% in 15 min, held 3 min, 100 µL/min
Conditions: column: Zorbax Extend-C18 2.1 x 50 mm; eluents: water / acetonitrile, 0.1% formic acid
Procedure, shortened: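 The mobile phases were water and acetonitrile, each with 0.1% formic acid, pumped at 100 μL/min through a Zorbax Extend-C18 column (2.1 × 50 mm, 1.8 μm). Pure standards were injected as mixtures of ~100 molecules and detected by a quadrupole time-of-flight mass spectrometer in positive and negative ionization mode. Retention time came from computationally picked adduct peaks, each inspected by hand.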

| Structure (SMILES) | RP-LC retention time [s] |
| --- | --- |
| Cc1nn(C)cc1CN(C)C(=O)c1ccc(-c2ccccc2)cc1 | 738 |
| CCc1nncn1C1CCN(S(=O)(=O)c2cc(OC)ccc2OC)CC1 | 664 |
| c1ccc(-c2nnc3nc(N4CCCCC4)nc(N4CCCCC4)n23)cc1 | 1260 |
| Cc1ccc(-c2nnc(N3CCC(C(=O)NC4CCCCCC4)CC3)o2)cc1 | 949 |
| COc1ccc(NC(=O)NC2CCN(c3ccc(C)cc3)C2=O)cc1OC (configuration not stated) | 720 |
| COc1ccc(CCS(=O)(=O)NCC2(c3ccc(F)cc3)CC2)cc1 | 950 |
| NC(=O)C1(c2cccc(C(F)(F)F)c2)CC1 | 764 |
| CCC(=O)N(CCOC)CC(=O)N1CCc2sccc2C1COc1ccccc1F (configuration not stated) | 831 |
| COc1ccc(-c2nnc3n2CCN(Cc2cnn(C)c2C)C3)cc1 | 583 |
| COc1ccc(S(=O)(=O)N2C[C@@H](F)C[C@H]2C(=O)N2CCOCC2)cc1 | 669 |
| CNC(=O)C1Cc2ccccc2CN1S(=O)(=O)c1ccc(OC)cc1 (configuration not stated) | 770 |
| Cc1cc(N2CCN(C(=O)c3ccc4c(c3)OCO4)CC2)nc(N2CCCCC2)n1 | 666 |
| CN(C)C(CNC(=O)Cc1cccs1)c1ccccc1Cl (configuration not stated) | 550 |
| Cc1c(C(=O)N2CCC(C)CC2)c(S(=O)(=O)N2CCN(c3ccccn3)CC2)c(C)n1C | 664 |
| COc1cccc(CN2CCC3(CC2)C(OC)CN3c2cccc(F)c2)n1 (configuration not stated) | 777 |
| CCCN(CC1CCOC1)S(=O)(=O)c1ccccc1CC (configuration not stated) | 992 |
| CC(=O)N1CCCC1c1nc(C2CN(S(=O)(=O)C(C)C)C2)no1 (configuration not stated) | 635 |

| Structure (SMILES) | RP-LC retention time [s] |
| --- | --- |
| Cc1noc(CN2CCN(C3CCN(Cc4cc(C(F)(F)F)ccc4Cl)C3)C2=O)n1 (configuration not stated) | 660 |
| COc1ccc(NS(=O)(=O)c2c(C)sc(C)c2-c2cc(C(F)(F)F)on2)c(OC)c1 | 1140 |
| Cc1nc2ncnn2c(N2CCCC2)c1C | 648 |
| CCC(C)NC(=O)c1cc(-c2cccs2)nc2onc(C)c12 (configuration not stated) | 929 |
| CS(=O)(=O)c1ccc(CC(=O)N2CC(Cc3nncn3CC3CC3)C2)cc1 | 592 |
| Cn1nc(-c2nnc(-c3ccc(F)cc3)o2)c2c1CCN(S(=O)(=O)c1cc(F)ccc1F)C2 | 958 |
| CCOC(=O)N1CCN(S(=O)(=O)c2c[nH]c(=O)[nH]c2=O)CC1 | 582 |
| COc1ccc2c(c1)C1(CCN(C(=O)COc3ccc(Cl)cc3)C1)C(=O)N2C (configuration not stated) | 878 |
| CC(C)OCCCNC(=O)CCc1c(-c2ccc(F)cc2)nc2ccccn12 | 622 |
| COc1ccc(OC)c(Nc2c(-c3ccc(Cl)cc3)nc3cnccn23)c1 | 968 |
| CCN1C(=O)COc2ccc(-c3noc(COc4ccc(OC)cc4)n3)cc21 | 1000 |
| COc1ccc2c(c1)C1(CCN(C(=O)c3ccc(OC)c(OC)c3)C1)C(=O)N2C (configuration not stated) | 886 |
| CC(C)OCCCNC(=O)C(=O)Nc1ccc(C(C)C)cc1 | 983 |
| CCCOc1nn(CCC)cc1C(=O)Nc1nccs1 | 865 |
| Cc1ccc(C)c(Cn2nc3ccc(S(=O)(=O)N4CCSCC4)cn3c2=O)c1 | 996 |
| CCn1c(=O)sc2cc(S(=O)(=O)N3CCC(C(=O)N(C)c4ccc(C)cc4)CC3)ccc21 | 953 |
| COc1ccccc1-c1[nH]ncc1CN1CC(F)(F)C[C@H]1CN1CCOCC1 | 555 |

Second part, the molecule after the results:

| RP-LC retention time [s] | Structure (SMILES) |
| --- | --- |
| 778 | O=C(NCc1ccccn1)c1ccc(-c2nc3cccnc3n(C3CCCC3)c2=O)cc1 |
| 836 | COCCCNC(=O)C1c2ccccc2C(=O)N(C2CCCC2)C1c1cccs1 (configuration not stated) |
| 752 | Cn1c(=O)n(C)c2cc(N3CCOCC3)c(NC(=O)Cc3ccccc3)cc21 |
| 640 | O=C(Cn1nc(Cc2cccnc2)c2ccccc2c1=O)NCC1COc2ccccc2O1 (configuration not stated) |
| 620 | Cn1cc(-c2cc3n(n2)CCCN3C(=O)CCC(=O)NCCCN2CCCC2)c2ccccc21 |
| 1040 | COc1ccccc1-c1noc(Cn2ccn3nc(-c4ccc(Cl)cc4)cc3c2=O)n1 |
| 867 | Cc1nnc(-c2ccc3ccn(CC(=O)N4CCN(c5ccccc5F)CC4)c3c2)o1 |
| 788 | CC(=O)N1CCc2ccccc2C1C(=O)NCc1ccccc1C (configuration not stated) |
| 814 | Cc1oc(-c2ccc(NC(=O)Cc3cccc(F)c3)cc2)nc1Cn1cccn1 |
| 985 | Cc1ccc(-c2cc3c4nnc(SCC(=O)Nc5ccccc5F)n4ccn3n2)cc1C |
| 670 | CCc1nn2c(N3CCN(c4ccccn4)CC3)cc(C)nc2c1-c1ccccc1 |
| 588 | Cc1c(-c2ccnc(N3CCN(Cc4ccccc4)CC3)n2)cnc2ncnn12 |
| 829 | CCn1ncc(NC(=O)c2ccccc2OC)c(N2CCOCC2)c1=O |
| 610 | NC(=O)C1CCN(C(=O)CN2CCc3ccccc32)CC1 |
| 907 | COc1ccc(NC(=O)c2noc3c2CCCCC3)cc1OC |
| 713 | Cc1ccc2c(=O)c(C(=O)N3CCOCC3)cn(CC(=O)NCCC3=CCCCC3)c2n1 |
| 1100 | Cc1ccc(OCC(=O)Nc2nnc(SCc3nnc(-c4ccccc4C)o3)s2)c(C)c1 |

| RP-LC retention time [s] | Structure (SMILES) |
| --- | --- |
| 722 | O=C(N[C@H]1C[C@@H]2C[C@H]1CN2S(=O)(=O)c1cccc2nsnc12)c1ccccc1 |
| 728 | O=C(CC1CCN(C(=O)c2ccc3oc(-c4ccccc4)nc3c2)CC1)NC1CC1 |
| 650 | Cc1ccc2nc3c(c(C(=O)NCC(C)C)c2c1)CCC3 |
| 610 | CC1CCCCN1CCNC(=O)CN1CCN(C(=O)Nc2ccc(Br)cc2)CC1=O (configuration not stated) |
| 732 | O=C(Cn1cnc2nc3c(cc2c1=O)CCCC3)Nc1ccccc1Br |
| 734 | O=C(NCc1cccnc1-c1ccc(F)cc1)c1cccc(Br)c1 |
| 967 | Cc1ccccc1NS(=O)(=O)c1cc2c3c(c1)CCC(=O)N3CCC2 |
| 1060 | O=C(NCCc1ccccc1)Nc1nccn(-c2ccc3c(c2)CCC3)c1=O |
| 630 | CCCc1nc2cccnc2n1C1CCN(C(=O)COc2ccccc2)C1 (configuration not stated) |
| 876 | Cc1cccc(-n2c(N3CCCC(C(=O)NCc4cccs4)C3)nc3ccsc3c2=O)c1 (configuration not stated) |
| 1060 | COc1ccc(-n2ncc3c(=O)n(Cc4nc(-c5ccccc5C)no4)cnc32)cc1 |
| 812 | COC(=O)c1cc(OCC(=O)Nc2ccc(OC)c(Cl)c2)c2ccccc2n1 |
| 740 | O=C1COc2ccc(S(=O)(=O)N3CCC(C(=O)NCCc4ccccc4)CC3)cc2N1 |
| 678 | COc1ccc(NC(=O)Cn2nc3n(c2=O)CCCCC3)c(OC)c1 |
| 750 | Cc1ccc(-n2cc3c(N4CCCC(C(=O)NCc5ccc(Cl)cc5)C4)ncnc3n2)cc1 (configuration not stated) |
| 588 | O=C1CN(c2ccccc2NC(=O)c2ccc[nH]c2=O)CCN1 |
